TGI and GI50 data for 19 compounds are collected here from PubChem BioAssay (NCI).

Test systems include A498 renal; CCRF-CEM leukemia; HCT-15 colon; HL-60(TB) leukemia; HOP-62 NSCLC; RPMI-8226 leukemia; UO-31 renal; DU-145 prostate; HS 578T breast; MCF7 breast.
Holding throughout (assay): NCI anticancer screen, dose series, 48 h

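Five concentrations, 48 hours, 96-well plates. GI50 marks 50% less growth. The concentration for full growth arrest is given as TGI.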

Consider `COC(=O)/C(=N/NC(C)(C)C)C(C(=O)OC)C(=O)C(=O)Nc1nc2ccc([N+](=O)[O-])cc2s1` (stereo unspecified), for which the TGI with A498 renal, in the assay with CCRF-CEM leukemia, in the assay with HCT-15 colon, in the assay with HL-60(TB) leukemia, in the assay on HOP-62 NSCLC and in the assay with RPMI-8226 leukemia was above 100 µM throughout. The same compound came in with a TGI with UO-31 renal above 100 µM.

Take `CN1CCc2cc3c4cc2C1Cc1ccc(cc1)Oc1cc(ccc1O)CC1c2c(cc(O)c(c2O4)O3)CCN1C` (stereo unspecified): the TGI with CCRF-CEM leukemia came out at 14 µM; with HCT-15 colon it was 4.27 µM; with HL-60(TB) leukemia it was 41.6 µM; with HOP-62 NSCLC it was 11.2 µM; in the assay on RPMI-8226 leukemia, 4.02 µM; in the assay on UO-31 renal, 13.6 µM.

As for `NCC1(N2CCOCC2)C2CCCC21CNc1ccccc1` (stereo unspecified), the TGI in the assay on CCRF-CEM leukemia, in the assay with HL-60(TB) leukemia, in the assay on HOP-62 NSCLC and with UO-31 renal was above 100 µM each time.

For `O=C1N=C(Nc2nc(-c3csc(NC4=NC(=O)/C(=C\c5ccc(Cl)cc5)S4)n3)cs2)S/C1=C/c1ccc(Cl)cc1`, the GI50 in the assay with DU-145 prostate is 17 µM; in the assay on HCT-15 colon, 40.4 µM; in the assay with HL-60(TB) leukemia it was 12.6 µM; in the assay with HOP-62 NSCLC, 3.29 µM; in the assay on HS 578T breast, above 50 µM; in the assay with MCF7 breast, 3.97 µM. Besides, the GI50 with UO-31 renal is 17.6 µM. Besides, the TGI is above 50 µM with DU-145 prostate; above 50 µM in the assay with HCT-15 colon; 33.8 µM in the assay on HL-60(TB) leukemia; 18 µM in the assay on HOP-62 NSCLC; above 50 µM in the assay on HS 578T breast; above 50 µM in the assay on MCF7 breast. Also, the TGI in the assay with UO-31 renal was above 50 µM.

For the compound `N#CC1C(=O)NC(=O)C1=O` (stereo unspecified), the TGI in the assay with A498 renal, in the assay on HCT-15 colon, with HOP-62 NSCLC, with RPMI-8226 leukemia and with UO-31 renal was above 100 µM throughout.

In the case of `O=C1c2ccccc2C(=O)c2c1ccc1c2N=C(c2ccc(Br)cc2)CC(c2cccc3ccccc23)N1` (stereo unspecified), the TGI in the assay with CCRF-CEM leukemia, in the assay with HCT-15 colon, with HL-60(TB) leukemia, in the assay with HOP-62 NSCLC, with RPMI-8226 leukemia and in the assay with UO-31 renal was above 100 µM each time.

With `N#Cc1cn(-c2c3ccccc3nc3ccccc23)c(=O)[nH]c1=O`, the TGI was 41.7 µM in the assay on CCRF-CEM leukemia; 31.9 µM with HCT-15 colon; 30.6 µM with HL-60(TB) leukemia; 75.8 µM with RPMI-8226 leukemia; 25 µM in the assay on UO-31 renal.

On to `CC1(C)CC(N2CCN(C3CC(C)(C)NC(C)(C)C3)CC2)CC(C)(C)N1`, for which the TGI in the assay with A498 renal, in the assay with CCRF-CEM leukemia, in the assay on HCT-15 colon, in the assay on HL-60(TB) leukemia, with HOP-62 NSCLC and in the assay on RPMI-8226 leukemia was above 100 µM throughout. Moreover, in the assay with UO-31 renal, the TGI is above 100 µM.

Turning to `O=C(O)COc1ccc(C(=O)/C(SS/C(C(=O)c2ccc(OCC(=O)O)c(Cl)c2Cl)=C2\C=C(c3ccccc3Cl)SS2)=C2/C=C(c3ccccc3Cl)SS2)c(Cl)c1Cl`, the TGI was 88.7 µM with A498 renal; 33.5 µM in the assay with CCRF-CEM leukemia; above 54.6 µM in the assay with HCT-15 colon; 7.01 µM in the assay on HL-60(TB) leukemia; above 100 µM in the assay with HOP-62 NSCLC; 42.5 µM in the assay with RPMI-8226 leukemia. Moreover, in the assay on UO-31 renal, the TGI was found to be 68.2 µM.

As for `Cc1ccc2nc3c(C)cc(=O)cc-3sc2c1`, the TGI in the assay on CCRF-CEM leukemia is 33.1 µM; in the assay on HCT-15 colon it was 40.9 µM; in the assay on HL-60(TB) leukemia it was 25.2 µM; in the assay with HOP-62 NSCLC it was 58.8 µM; in the assay on UO-31 renal, 83.9 µM.

`Cc1c(O)c(Br)c(C)c(O)c1Br` (tested in a mixture with another compound): the TGI in the assay on A498 renal amounted to 29 µM; in the assay on CCRF-CEM leukemia, 0.807 µM; in the assay with DU-145 prostate, 5.15 µM; in the assay with HL-60(TB) leukemia it was 3.22 µM; with HOP-62 NSCLC, 40.3 µM; in the assay with HS 578T breast, 19.9 µM. For the same compound, the values for the TGI in the assay on RPMI-8226 leukemia and with UO-31 renal were 6.06 µM and 3.28 µM, respectively.

With `NC(=O)c1cc([N+](=O)[O-])cc([N+](=O)[O-])c1`, the TGI in the assay on A498 renal, in the assay with CCRF-CEM leukemia, with HCT-15 colon, in the assay with HL-60(TB) leukemia, in the assay with HOP-62 NSCLC and with RPMI-8226 leukemia was above 100 µM each time. Moreover, the TGI in the assay with UO-31 renal was above 100 µM.

On to `CC1(C)OC(=O)C(=Cc2ccc([N+](=O)[O-])s2)C(=O)O1`, for which the TGI in the assay on A498 renal is 54.7 µM; in the assay on CCRF-CEM leukemia, 88.6 µM; with DU-145 prostate, 30.9 µM; in the assay on HCT-15 colon it was 14.2 µM; with HL-60(TB) leukemia, 5.59 µM; in the assay with HOP-62 NSCLC, 35.1 µM. For the same compound, the TGI in the assay on MCF7 breast amounted to 68.4 µM; in the assay on RPMI-8226 leukemia it was 37.1 µM; in the assay with UO-31 renal it was 23.6 µM.

Take `O=C1CC[C@@H](NC(=O)Cc2ccccc2)C(=O)N1`: the TGI in the assay with A498 renal, in the assay on CCRF-CEM leukemia, with HOP-62 NSCLC, in the assay on RPMI-8226 leukemia and in the assay on UO-31 renal was above 100 µM each time.

Regarding `CCCCCCCCCCCC(=O)OC(COC(N)=O)COc1ccc(Cl)cc1` (stereo unspecified), the TGI in the assay with A498 renal is above 100 µM; with CCRF-CEM leukemia, 35.9 µM; in the assay with HCT-15 colon, 91.3 µM; in the assay with HL-60(TB) leukemia it was 33.3 µM; in the assay on HOP-62 NSCLC, above 100 µM; with RPMI-8226 leukemia, 47 µM. The TGI in the assay on UO-31 renal was above 100 µM.

For the compound `O=C(/C=C/c1ccc(O)cc1)c1cc(Cl)ccc1O`, the TGI in the assay on A498 renal is above 100 µM; with CCRF-CEM leukemia it was 44.8 µM; in the assay on HL-60(TB) leukemia it was 45.8 µM; with HOP-62 NSCLC it was above 100 µM; with UO-31 renal, 70.5 µM.

Take `Cc1ccc(NC(=O)C(=O)CC(=O)c2ccccc2)cc1C`: the TGI in the assay on A498 renal, in the assay on HCT-15 colon, in the assay on HOP-62 NSCLC, with RPMI-8226 leukemia and in the assay with UO-31 renal was above 100 µM each time.

Regarding `c1ccc2c(c1)N=C(c1ccc3ccccc3c1)CC(c1cccc3ccccc13)S2` (stereo unspecified), the TGI in the assay with A498 renal is 75.4 µM; with CCRF-CEM leukemia it was 33.5 µM; in the assay with HCT-15 colon it was above 100 µM; with HL-60(TB) leukemia, 47.1 µM; in the assay on HOP-62 NSCLC, above 100 µM; in the assay on RPMI-8226 leukemia, 52.5 µM. Further, the TGI in the assay with UO-31 renal is above 100 µM.

For the compound `Cn1cnc([N+](=O)[O-])c1Sc1nc2ccc([N+](=O)[O-])cc2[nH]1`, the TGI in the assay with A498 renal is 83.4 µM; with CCRF-CEM leukemia, 81.1 µM; with HCT-15 colon, 38.8 µM; in the assay with HL-60(TB) leukemia it was above 100 µM; with HOP-62 NSCLC it was above 100 µM; with RPMI-8226 leukemia it was 67.5 µM. Moreover, the TGI in the assay with UO-31 renal is 67.6 µM.
